For this test, the target named is T1, human recombinant mGluR5 (Homo sapiens, UniProt P41594).
T1 construct: expressed in transfected cells; host or cells: HEK 293 cell line
In words: Positive modulation of mGluR5, calcium based FLIPR assay in HEK 293 cells. The conditions noted are these: EC50 of the modulation; HEK 293 cell line expressing human recombinant mGluR5; glutamate at approximately 5% basal stimulation; peak height of Ca release fluorescence signal. The protocol: The positive modulation of mGluR5 is measured in a HEK 293 cell line expressing human recombinant mGluR5 and is detected with calcium based FLIPR assay. The cells are cultured with DMEM supplemented with 10% FCS, 2 μg/mL tetracycline, 100 μg/mL hygromycin and 500 μg/mL gneticin. The cell culture media is exchanged for tetracycline-free cell culture media 3-7 days before the assay. One day before the assay the cell culture medium is exchanged to DMEM without glutamine and phenol red and supplemented with 10% FCS, 100 μg/mL hygromycin and 500 μg/mL geneticin. On the assay day, the medium of the subconfluent cultures is removed and the cells are detached by addition of 2.5 ml EDTA(0.02%) per 175 cm2 culture flask for 1 minute. The cells are resuspend in Ringer solution (140 mM NaCl, 5 mM KCl, 2.5 mM CaCl2, 1.5 mM MgCl2, 5 mM Glucose, 10 mM Hepes; adjusted to pH 7.4 with NaOH), pooled and Ringer solution added to adjust the volume to 50 mL. The cell suspension is centrifuged for […] at 1500 U/min (425 g). The supernatant is removed and the cells washed a second time with 50 ml fresh Ringer solution and centrifuged again as before. The supernatant is again removed and the pellet resuspended in Ringer solution to 1,000,000 cells/ml (1×10^6 cells/mL). The cells are plated onto BD BioCoat Poly-D-Lysine 384 well plates (20.000 cells/well; 20 μl/well). The lid covered plates are then incubated until use at 37° C./10% CO2. For dye loading, 20 μl of Calcium-4 assay kit solution (prepared according to the manufacturer's description in Ringer solution) are added to the cells and the plates are incubated for 80 min 37° C. and then 10 min at room temperature.
Controls, Compound Dilution and Assay Execution:
Each assay plate contained wells with “high” and “low” controls:
Low controls 1% DMSO/ringer solution+basal glutamate activation (defined as 100% CTL).
High controls 10 μM CDPPB+basal glutamate activation (defined as 200% CTL).
Test compounds are dissolved and diluted in DMSO to 100-fold the desired concentrations. In a second step, the compounds are diluted in Ringer solution such that the compounds are 4-fold more concentrated than the desired final assay concentration. The final DMSO concentration was 1%.
20 μl of each compound solution are then transferred to the assay plate and the Ca2+ kinetic is measured to determine any intrinsic compound activity. After 5 min incubation in the FLIPR device, the second stimulation with 20 μl of glutamate in Ringer solution (glutamate concentration adjusted to approximately 5% basal stimulation of the maximal possible glutamate effect) is added and the kinetic Ca2+ response of the wells was measured for the modulation effect.
The peak height of the Ca release related fluorescence signal (9-66) is used for the EC50. The EC50 of the modulation is calculated over a nonlinear regression with GraphPad Prism (Table 1).

As usually defined, the EC50 is the concentration giving half of the maximal effect.

T1 sequence (P41594 21-1212): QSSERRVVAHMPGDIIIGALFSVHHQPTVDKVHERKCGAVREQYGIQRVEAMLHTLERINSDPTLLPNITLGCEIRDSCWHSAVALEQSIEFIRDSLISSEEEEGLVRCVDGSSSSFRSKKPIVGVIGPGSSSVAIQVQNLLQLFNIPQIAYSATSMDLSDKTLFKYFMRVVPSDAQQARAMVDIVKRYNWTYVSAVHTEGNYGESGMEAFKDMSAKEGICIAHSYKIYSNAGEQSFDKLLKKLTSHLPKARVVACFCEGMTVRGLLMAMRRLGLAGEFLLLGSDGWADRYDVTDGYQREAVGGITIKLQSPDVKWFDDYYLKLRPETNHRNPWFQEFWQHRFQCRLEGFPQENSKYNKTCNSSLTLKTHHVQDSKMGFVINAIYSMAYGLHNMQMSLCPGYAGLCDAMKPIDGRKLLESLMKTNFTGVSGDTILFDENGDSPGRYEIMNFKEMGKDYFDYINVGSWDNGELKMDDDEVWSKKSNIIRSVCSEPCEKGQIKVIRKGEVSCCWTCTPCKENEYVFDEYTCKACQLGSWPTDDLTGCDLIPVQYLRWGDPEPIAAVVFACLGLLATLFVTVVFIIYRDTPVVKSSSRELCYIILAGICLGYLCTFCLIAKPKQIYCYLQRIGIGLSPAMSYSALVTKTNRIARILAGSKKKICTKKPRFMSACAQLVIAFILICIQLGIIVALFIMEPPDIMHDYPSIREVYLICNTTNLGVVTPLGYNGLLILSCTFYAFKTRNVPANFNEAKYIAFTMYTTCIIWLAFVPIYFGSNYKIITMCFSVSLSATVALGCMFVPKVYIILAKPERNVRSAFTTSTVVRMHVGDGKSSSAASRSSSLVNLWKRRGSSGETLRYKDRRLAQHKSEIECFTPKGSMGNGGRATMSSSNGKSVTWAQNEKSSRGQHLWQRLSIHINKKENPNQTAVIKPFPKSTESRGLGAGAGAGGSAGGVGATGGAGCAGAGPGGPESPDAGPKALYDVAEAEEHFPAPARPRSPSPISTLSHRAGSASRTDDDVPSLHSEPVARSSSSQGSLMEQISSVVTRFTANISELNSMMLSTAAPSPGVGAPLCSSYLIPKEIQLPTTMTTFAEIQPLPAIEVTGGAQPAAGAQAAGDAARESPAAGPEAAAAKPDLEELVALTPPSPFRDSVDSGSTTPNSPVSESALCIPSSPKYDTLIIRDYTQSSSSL

Take `Cc1cc(-c2cn(-c3ccccc3)c(CC(=O)N3CCN(c4ccccn4)CC3)n2)ccc1F` [Example 7.04.42.]: the EC50 amounted to 24 nM.
To `COc1cc(N2CCN(C(=O)Cc3nc(-c4ccc(F)c(C)c4)cn3-c3ccccc3)CC2)ncn1` [Example 7.04.43.] belongs 19 nM; to `Cc1cc(-c2cn(-c3ccccc3)c(CC(=O)N3CCN(c4ncccn4)CC3)n2)ccc1F` [Example 7.04.44.], 11 nM; to `COc1ccnc(N2CCN(C(=O)Cc3nc(-c4ccc(F)c(C)c4)cn3-c3ccccc3)CC2)c1` [Example 7.04.45.], 28 nM.
To `COc1cnc(N2CCN(C(=O)Cc3nc(-c4ccc(F)c(C)c4)cn3-c3ccccc3)CC2)nc1` [Example 7.04.46.] belongs 21 nM; to `CCn1cc(-c2ccc(F)c(C)c2)nc1CC(=O)N1CCN(c2ncccn2)CC1` [Example 7.05.01, 2-(1-Ethyl-4-(4-fluoro-3-methyl-phenyl)-1H-imidazol-2-yl)-1-(4-pyrimidin-2-yl-piperazin-1-yl)-ethanone], 174 nM.
